Assay results published in EP0218688B1, “DIHALO-STATINE SUBSTITUTED RENIN INHIBITORS” (THE UPJOHN COMPANY, priority 1985, dated 1986).

Molecular target: T1, renin (Homo sapiens, UniProt P00797)
T1 construct: Lyophilized human plasma with 0.1% EDTA is obtained from New England Nuclear; tissue New England Nuclear Plasma Renin Activity Control; host or cells: human plasma (lyophilized, reconstituted)
T1 sequence (P00797 67-406): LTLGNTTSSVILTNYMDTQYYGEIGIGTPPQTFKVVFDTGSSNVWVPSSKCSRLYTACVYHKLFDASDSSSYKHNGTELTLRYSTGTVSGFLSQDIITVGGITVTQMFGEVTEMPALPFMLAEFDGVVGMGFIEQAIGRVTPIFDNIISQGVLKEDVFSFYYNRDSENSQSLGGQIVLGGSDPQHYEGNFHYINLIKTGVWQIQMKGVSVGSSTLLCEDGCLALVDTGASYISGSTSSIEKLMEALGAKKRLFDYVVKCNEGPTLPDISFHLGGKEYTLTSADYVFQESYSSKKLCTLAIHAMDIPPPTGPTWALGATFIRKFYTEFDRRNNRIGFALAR
Assay: GAMMACOAT plasma renin activity (PRA) radioimmunoassay, inhibition of angiotensin I generation in reconstituted human plasma
Format: biochemical
Conditions: I50 of RIP compared with I50 of the compound, RIP value of the same assay day
Protocol: Lyophilized human plasma with 0.1% EDTA is obtained from New England Nuclear, North Billerica, Massachusetts 01862 as "Plasma Renin Activity Control". This lyophilized plasma is reconstituted, on the day of the assay, with cold sterile distilled water according to directions on the vial. The plasma renin activity (PRA) of the reconstituted plasma is assayed with "GAMMACOAT [^125 Plasma Renin Activity Radioimmunoassay Kit" supplied by Clinical Assays, a Division of Travenol Laboratories, Inc., Cambridge, Massachusetts 02139. The procedure used with these kits is carried out essentially as described in the literature which accompanies them. […]
In the case of renin inhibitory peptide (RIP), […] of the 4°C. blank is added to a GAMMACOAT® tube. […] The tubes are then counted in a gamma counter. The results of the RIP are evaluated with the Rodbard Radioimmunoassay Program and the plasma renin activity (PRA) is expressed as […]. […] In addition to l50 values, relative potencies are also calculated. A relative potency is determined by comparing the 150 of RIP to the l50 of the compound. However, it must be emphasized that relative potencies are calculated from the l50 obtained for RIP on the day the compound is assayed and not from the average 15o for RIP.

Row | Compound | relative potency
1 | CC[C@H](C)[C@H](NC(=O)C(F)(F)[C@H](O)[C@H](CC(C)C)NC(=O)[C@H](Cc1c[nH]cn1)NC(=O)[C@H](Cc1ccccc1)NC(=O)OC(C)(C)C)C(=O)NCc1ccccn1 [N-tert-Butyloxycarbonyl-L-phenylalanyl-L-histidyl-2,2-difluoro-statyl-L-isoleucyl-2-pyridylmethylamide] | 1,000
2 | CC[C@H](C)[C@H](NC(=O)C(F)(F)C(=O)C(CC(C)C)NC(=O)[C@H](Cc1c[nH]cn1)NC(=O)[C@H](Cc1ccccc1)NC(=O)OC(C)(C)C)C(=O)NCc1ccccn1 (stereo partly drawn) [N-tert-Butyloxycarbonyl-L-phenylalanyl-L-histidyl-2,2-difluoro-statonyl-L-isoleucyl-2-pyridylmethylamide] | 6100
